Laboratory results as given in US20230054749A1, “Herbicide Combinations Comprising Glufosinate and Flumiclorac-pentyl” (BASF SE, priority 2020, published 2023).
Read-outs that look alike come from different tables or passages of the source.

Tested on: Abutilon theophrasti
Assay: Greenhouse post-emergence herbicidal activity (plant damage, 0 to 100% scale vs untreated control)
Type: in vivo
Conditions: 0.796 g ai/ha, ABUTH, AMS + NIS added, read-out: Solo Flumiclorac (0.796 g ai/ha) % activity
Excerpt: For the post-emergence treatment, the test plants were first grown to 3.5 to 4.5 inch (8.9 to 11.4 cm) tall, and only then treated. Here, the herbicidal compositions were suspended or emulsified in water as distribution medium and sprayed using finely distributing nozzles.
Flumiclorac (commercial product name: Resource) was used as an emulsifiable concentrate having an active ingredient concentration of 100 g/l. Glufosinate (commercial product name: Liberty) was used as an aqueous soluble liquid of glufosinate ammonium having an active ingredient concentration of 280 g/l. Adjuvants of ammonium sulfate (AMS) and non-ionic surfactant (NIS) were added in all treatments. AMS and NIS were AMS Liquid and Induce at rates of 1680 g/ha and 0.25% (v/v), respectively.
The test period extended over 21 days after treatment (DAT). During this time, the plants were tended and their response to the individual treatments was evaluated.
The evaluation for the damage caused by the chemical compositions was carried out using a scale from 0 to 100%, compared to the untreated control plants. Here, 0 means no damage and 100 means complete destruction of the plants.
E = X + Y - (X.Y/100) • where X = effect in percent using flumiclorac at an application rate a; • Y = effect in percent using glufosinate at application rate b; • E = expected effect (in %) of flumiclorac plus glufosinate at application rates a + b.
The value E corresponds to the effect (plant damage or injury) which is to be expected if the activity of the individual compounds is just additive.

Q: How did the inhibition at 0.796 g/ha (168 h, 7 DAT) turn out when CCCCCOC(=O)COc1cc(N2C(=O)C3=C(CCCC3)C2=O)c(F)cc1Cl [Flumiclorac, flumiclorac-pentyl] was run?
A: 53%

Q: And the inhibition at 0.796 g/ha (336 h, 14 DAT)?
A: 45%

Q: What about the inhibition at 0.796 g/ha (504 h, 21 DAT) of the same compound?
A: 41%
